# Data: US9897592B2, “Methods for identifying arthropod repellents and attractants, and compounds and compositions identified by such methods” (The Regents of the University of California, priority 2013, dated 2018)
# Counter-ions that a name gives are not always drawn.
# Tested on: cpA neuron
# Assay: Single-sensillum recording: activation of cpA neuron by odorants
# Format: cell-based, Aedes aegypti
# Conditions: A. aegypti cpA, 0.5-s pulses, odorants 10^−2 in paraffin oil or water, solvent response subtracted
# Protocol: FIG. 3b depicts representative traces and mean responses of the A. aegypti cpA neuron to 0.5-s pulses of 138 predicted compounds screened using single-sensillum recordings, in which odorants were diluted to 10^−2 in paraffin oil or water, and responses to solvent have been subtracted, n=2-6, and error bars are s.d.
# FIG. 5f is a bar graph illustrating the mean responses of the A. aegypti cpA neuron to 0.5-s pulses of 22 newly predicted compounds screened as in FIG. 3b, where salmon bars correspond to odorants found in human odor, odorants were diluted to 10^−2 in paraffin oil or water, and responses to solvent have been subtracted, and n=2-5.
# Adult female A. aegypti (Linnaeus 1762) (Rockefeller strain) A. gambiae sensu stricto Giles 1902 (G3 strain), or C. quinquefasciatus Say 1823 were tested 3-12 days post-emergence with single-sensillum extracellular recordings. Chemicals were obtained from Sigma-Aldrich at the highest purity (typically >99%) and were dissolved in paraffin oil or water. […] Response to clean beads was subtracted from the results reported. Only sensilla with cpA activity of <20 spikes s^−1 to negative control were considered for analysis.
# CpA-off and sham treated mosquitoes were pre-treated for 3 min in an upended 1 L glass dish in which 100 μl of fresh butyryl chloride (1%) or paraffin oil was allowed to vaporize for 10-20 min. The odor delivery system for different screens is shown in FIG. 7b; solvent responses during the same recording session were subtracted. Inhibition screen was tested. For the ultra-prolonged activator the 3-s stimulus was delivered from a 10 ml disposable pipette using a CS-55 stimulus controller (Syntech), CO2 was delivered, and responses to subsequent odor stimuli were calculated by subtracting baseline activity 1 s prior to each stimulus. When responses to repeated pulses of cyclopentanone and CO2 were compared, baseline activity between seconds 5 and 6 following each stimulus was subtracted. Spike counting was done manually or with Igor Pro6.2 (Wavemetrics) with the Neuromatic v2.00 macro (by Jason Rothman), and peak-to-peak spike amplitudes for FIG. 8 were analysed in Clampfit 10.3 (Molecular Devices).
# From the large list of cpA receptor ligands predicted from Example 3 above, 138 compounds were selected based on desirable criteria for application such as smell, presence in natural sources, human safety profile, and cost to procure. These compounds were tested individually using single-sensillum electrophysiology on the cp sensillum of female A. aegypti, according to the procedure described in Example 1 above.
row,Compound,Activation (spikes s^−1)
1,CC1CCC(=O)O1 (stereo not shown) [5-methyloxolan-2-one],10.0
2,CC(C)OC(=O)c1ccccc1 [propan-2-yl benzoate],6.0
3,"Cc1cc(O)cc(O)c1 [5-methylbenzene-1,3-diol]",0.5
4,C/C=C/C(=O)OCC [ethyl (E)-but-2-enoate],22.0
5,c1cc[nH]c1 [1H-pyrrole],89.8
6,Cc1cccc(O)c1 [3-methylphenol],44.0
7,CCCOC=O [propyl formate],58.0
8,CCC(C)C=O (stereo not shown) [2-methylbutanal],33.5
9,CCC(C)c1nccnc1OC (stereo not shown) [2-butan-2-yl-3-methoxypyrazine],−10.5
10,NCCC(=O)O [3-aminopropanoic acid],8.0
11,CCOC=O [ethyl formate],34.5
12,"c1cnc2cccnc2c1 [1,5-naphthyridine]",1.5
13,OCCCc1ccccc1 [3-phenylpropan-1-ol],−3.0
14,CC(C)CC(=O)OCCc1ccccc1 [2-phenylethyl 3-methylbutanoate],4.5
15,"Cc1ncsc1CCO [2-(4-methyl-1,3-thiazol-5-yl)ethanol]",4.5
16,O=C1CCCCN1 [piperidin-2-one],0.0
17,CCOC(C)=O [ethyl acetate],62.4
18,"CC1CC(=O)C(=O)C1C (stereo not shown) [3,4-dimethylcyclopentane-1,2-dione]",1.5
19,Cc1ccco1 [2-methylfuran],48.0
20,CC1=CCC(=O)O1 [5-methyl-3H-furan-2-one],56.0
21,"c1cnc2c(n1)CCCC2 [5,6,7,8-tetrahydroquinoxaline]",−5.5
22,CC1=CC(O)CCC1 (stereo not shown) [3-methylcyclohex-2-en-1-ol],23.0
23,Cc1ccccc1C=O [2-methylbenzaldehyde],19.0
24,CC1(O)CCOC(=O)C1 (stereo not shown) [4-hydroxy-4-methyloxan-2-one],−1.0
25,CC(=O)CCC(=O)O [4-oxopentanoic acid],4.5
26,"CC1CCC(=O)C1=O (stereo not shown) [3-methylcyclopentane-1,2-dione]",3.5

row,Compound,Activation (spikes s^−1)
1,"CC(=O)C1=NCCS1 [1-(4,5-dihydro-1,3-thiazol-2-yl)ethanone]",8.0
2,"C=Cc1scnc1C [5-ethenyl-4-methyl-1,3-thiazole]",50.5
3,CC1OCCC1=O (stereo not shown) [2-methyloxolan-3-one],58.4
4,CC(C)=CC=O [3-methylbut-2-enal],55.5
5,CCC(=O)C(=O)O [2-oxobutanoic acid],7.0
6,OC1CCCCC1 [cyclohexanol],59.0
7,CC(=O)C=C(C)C [4-methylpent-3-en-2-one],34.0
8,"CC(S)C(C)S (stereo not shown) [butane-2,3-dithiol]",25.0
9,CC(C)[C@H](N)C(=O)O [(2S)-2-amino-3-methylbutanoic acid],3.5
10,Cn1cccc1 [1-methylpyrrole],54.2
11,CSc1ccoc1C [2-methyl-3-methylsulfanylfuran],12.0
12,"CC(C)=CCC/C(C)=C/COC=O [[(2E)-3,7-dimethylocta-2,6-dienyl] formate]",−2.5
13,CCCCCO [pentan-1-ol],50.5
14,CC/C=C\CCO [(Z)-hex-3-en-1-ol],2.5
15,CCCC(O)CCC [heptan-4-ol],−3.0
16,CC(C)CC(C)O (stereo not shown) [4-methylpentan-2-ol],24.0
17,CCCCCC/C=C\CO [(Z)-non-2-en-1-ol],−1.5
18,"CC1=C(O)C(=O)OC1C (stereo not shown) [4-hydroxy-2,3-dimethyl-2H-furan-5-one]",9.0
19,C/C=C/C(=O)O [(E)-but-2-enoic acid],−1.5
20,CCCCCCC1CCCC(=O)O1 (stereo not shown) [6-hexyloxan-2-one],1.5
21,c1ccsc1 [Thiophene],116.6
22,COC(=O)C(C)C [methyl 2-methylpropanoate],49.4
23,CC(=O)C(C)O (stereo not shown) [3-hydroxybutan-2-one],0.5
24,CC(C)CC=O [3-methylbutanal],60.2
25,CCC(=O)OC [methyl propanoate],75.0
26,O=C(O)[C@@H]1CCCN1 [(2S)-pyrrolidine-2-carboxylic acid],3.5

row,Compound,Activation (spikes s^−1)
1,C/C=C(\C)C(=O)OCCc1ccccc1 [2-phenylethyl (E)-2-methylbut-2-enoate],2.5
2,CCC(N)C(=O)O (stereo not shown) [2-aminobutanoic acid],−3.0
3,CCc1ccc(C=O)cc1 [4-ethylbenzaldehyde],2.5
4,c1ccnnc1 [pyridazine],2.5
5,CC1=CC(=O)CC1 [3-methylcyclopent-2-en-1-one],31.0
6,"CC(C)Cc1nccs1 [2-(2-methylpropyl)-1,3-thiazole]",12.0
7,CC(C)=CC1CC(C)CCO1 (stereo not shown) [4-methyl-2-(2-methylprop-1-enyl)oxane],1.5
8,CCOCc1cnccn1 [2-(ethoxymethyl)pyrazine],−8.0
9,"Cc1cncc(C)n1 [2,6-dimethylpyrazine]",14.8
10,"C=C(C)C(=C)C [2,3-dimethylbuta-1,3-diene]",10.0
11,O=C1CNCCN1 [piperazin-2-one],−3.2
12,"Cc1cscn1 [4-methyl-1,3-thiazole]",111.8
13,CC(C)Cc1cccnc1 [3-(2-methylpropyl)pyridine],5.5
14,C[N+](C)(C)CC(=O)[O-] [2-(trimethylazaniumyl)acetate],2.5
15,OCCCCCc1ccccc1 [5-phenylpentan-1-ol],−3.0
16,CC(C)=CC(=O)O [3-methylbut-2-enoic acid],0.5
17,"CC1CCCC(C)N1 (stereo not shown) [2,6-dimethylpiperidine]",2.5
18,CCCC(=O)c1ccccc1 [1-phenylbutan-1-one],1.5
19,CCc1nccnc1C [2-ethyl-3-methylpyrazine],−7.5
20,CCc1nccnc1OC [2-ethyl-3-methoxypyrazine],−17.5
21,C=CCOC(=O)CC [prop-2-enyl propanoate],49.5
22,CC(C)COC=O [2-methylpropyl formate],48.0
23,O=COCc1ccccc1 [benzyl formate],8.0
24,C/C=C\C(=O)OCC(C)C [2-methylpropyl (Z)-but-2-enoate],−5.0

# Same assay, conditions: cpA neuron; 20 compounds from the top 200 SVM ligand predictions; negative values = inhibition; N = 4
row,Compound,Activation (spikes s−1)
1,CC(C)OC=O [propan-2-yl formate],63.8
2,Sc1cccs1 [thiophene-2-thiol],−35.5
3,C=CCSC [3-methylsulfanylprop-1-ene],52.8
4,CC(C)O [propan-2-ol],25.3
5,CC1CCCO1 (stereo not shown) [2-methyloxolane],82.5
6,CC1CCCC1 [methylcyclopentane],16.3
7,CCc1cccs1 [2-ethylthiophene],9.3
8,CSC [methylsulfanylmethane],99.3
9,Cc1ccsc1 [3-methylthiophene],33.8
